This note sets out measurements from EP1698638A1, “Lipopeptides having pharmaceutical activity” (Technische Universität Berlin, priority 2005, dated 2006).

Assay [1] has as its system Jurkat ATCC-TIB-152 (human acute T cell leukemia) celline. The assay can be described thus: cytotoxicity, cell viability by XTT test (1st test). In kind it is cell-based. The protocol:
Furthermore, the compounds according to the present invention were tested in relation to their activity against cancer cell lines. They were tested for cytotoxicity by determining the IC50-values. The IC50-value was determined by the procedure discrided in Filip P, Anke T, Sterner O, 5-(2'-oxoheptadecyl)-resorcinol and 5-(2'-oxononadecyl)-resorcinol, cytotoxic metabolites from a wood-inhabiting basidiomycete, ZNaturforsch [C]. 2002 Nov-Dec;57(11-12):1004-8. Sample preparation was carried out as follows: 1 st test The compound (hassalidin B) (20 µg) was dissolved in 4 µl DMSO and 16 µl H2O to give a concentration of 1 mg/ml. 1 µl of this solution and 0,5 µl of this solution were used to inoculate 200 µl culture medium each, thus making up a concentration of hassallidin B of 5µg/ml and 2,5 µ/ml, respectively. Thereafter 68 µl H2O were added to 17 µl of the solution of 1 mg/ml hassalidin B to give a concentration of 200 µg/ml, and again 1 µl and 0,5 µl of this solution were used to inoculate 200 µl of culture medium each thus making up a final concentration of hassallidin B of 1 µg/ml and 0,5 µg/ml, respectively. […] Cell viability of cell growing was measured by the XTT test (Boehringer, Mannheim/Roche) as discribed in the product information. […]

In another assay the test system is ATCC 6258 (QC). The assay can be described thus: microdilution assay (NCCLS), inhibitory concentration (IC). Conditions: Table 4 series, RPMI-1640 medium. In kind it is cell-based, Candida krusei.
The subject of assay [2] is Cryptococcus neoformas RKI 18/05. The assay is described as above. In kind it is cell-based. Conditions: RPMI-1640 medium. On the procedure:
More specifically, a determination of inhibitory concentration (IC) of hassallidin A and hassallidin B for various fungi, Candida species and Candida strains were performed with different media (RPMI-1640 or SAB or AM3) in a microdilution assay by following the guidelines in NCCLS documents M^38-P^25 and M27-A2^26 carried out as follows Each substance was dissolved with 100% dimethyl sulfoxide (Serva, Heidelberg, Germany) to give a stock solution of 3.2 mg/ml followed by nine log2 dilution steps with the solvent. This served as a 100-fold concentrated dilution series ranging from 1.6 mg/ml to 0.003 mg/ml of the test substance. The final concentration of the test substance was 16 µg/ml to 0.031 µg/ml.
Therefore the 100-fold concentrated dilution series (with 100% DMSO) was diluted to the final concentration by two dilution steps: • (1) Each concentration of the 100-fold concentrated substance was diluted with test medium for 1:50 (for ex.: adding of 13 µl of the test substance to 637 µl test medium). • (2) 100 µl of each 1:50 diluted concentration was filled in a row of wells of a microtitre plate. One well was without the substance but with the 1:50 diluted solvent serving as growth control.
A further 1:2 dilution of the antifungal was made by the inoculation of each well with 100 µl of the test organism, which was suspended in the test medium. The remaining well of the row was used for sterility control of the medium. The inoculum was strictly prepared according the NCCLS^25 guidelines, resulting in […] for Candida-species and Cryptococcus neoformans. For hyphomycetes CFU's were tenfold higher (see NCCLS). ^26 The growth of the hyphomycetes respectively the inhibition was measured by visual reading with the help of a reading mirror; scoring was done according to NCCLS :^26 score 0 corresponds to a optical clear well or an IC95 or higher, score 1 corresponds to an inhibition of 80 percent (IC80) and the score 2 of the NCCLS definition corresponds to the IC50 values in the tables. […] The percent inhibition IC50, IC80 or IC95 (corresponding the scores of 2, 1 and 0) was calculated by the following formula: (100−[(ODof the well−ODof the medium)] × 100)/((ODof the growth control−ODof the medium).) [formula] Table 3. Test series for determining IC values of hassallidin A and B in different media using Candida albicans and Candida krusei. The IC values were measured after 24 h and 48 h at 30 °C.

hassallidin B gave an IC50-value in assay [1] of 0.2 µg/mL.
For the substance hassallidin A, the IC80 is listed as 8 µg/mL in the assay with ATCC 6258 (QC) (35°C/24h); 16 µg/mL in the assay with ATCC 6258 (QC) (35°C/48h); 4 (visual) µg/mL in assay [2] (35°C/24h, visual); 4 µg/mL in assay [2] (35°C/48h). Also, the IC95 was 8 µg/mL in the assay on ATCC 6258 (QC) (35°C/24h); 4 (visual) µg/mL in assay [2] (35°C/24h, visual); 4 µg/mL in assay [2] (35°C/48h). Moreover, the IC50 in assay [2] (35°C/24h, visual) is listed as 4 (visual) µg/mL; in assay [2] (35°C/48h), 4 µg/mL.
